{
  "source": "paper PMC3664642",
  "about": "“A Peptide against Soluble Guanylyl Cyclase α1: A New Approach to Treating Prostate Cancer” (PLoS ONE, 2013)",
  "key": {"LNCaP cells": {"test_system": "LNCaP cells", "assay": "AKT over-expression (adenovirus) rescue of Peptide A-8R-treated cells", "format": "cell-based", "settings": "10- 50 µM Peptide A-8R; 10% serum; 0–6 days; Fig. S4D"}, "sGCα1-sGCβ1": {"test_system": "sGCα1-sGCβ1", "assay": "sGCα1-sGCβ1 co-immunoprecipitation, LNCaP extracts", "format": "binding", "settings": "LNCaP whole-cell extracts; Fig. S1A", "method": "Immunoprecipitation (IP) in LNCaP cells was performed as described previously. Whole-cell extracts from LNCaP cells were subjected to IP using Protein A/G plus Agarose (Santa Cruz). IP antibodies were against sGCα1 (Cayman Chemical), sGCβ1 (Cayman Chemical), or rabbit IgG (Santa Cruz) as control. For Biotin pulldown, 5 µg Biotin-labeled Peptide A was incubated with NeutrAvidin Agarose Resin (Thermo Scientific) for 3 hours at 4°C, after which whole-cell extract from LNCaP cells was added and incubated overnight at 4°C. Resin was washed and eluted with SDS Sample buffer, followed by SDS-PAGE gel electrophoresis.\n(A) Whole-cell extracts from LNCaP cells treated with Vehicle, Peptide A-8R, or C-8R were subjected to IP using an anti-sGCα1 or anti-sGCβ1 antibody and then probed by Western blotting for sGCα1 (Upper) or sGCβ1 (Lower). Input represents amount of sGCα1 or sGCβ1 found in extracts. (B) LNCaP cells grown in the absence or presence of 1 nM R1881 were treated with Vehicle, 20 µM Peptide A-8R, 20 µM C-8R, or 8-Br-cGMP and monitored for cGMP levels using the cGMP E1A kit (Enzo Life Sciences). (C) LNCaP cells grown in the absence or presence of 8-Br-cGMP were treated with Vehicle, Peptide A-8R, or ODQ and monitored for cell density using the MTT assay. (D) LNCaP cells were treated with Vehicle or different concentrations of Peptide A-8R and C-PTIO and monitored for cell density. […]"}, "C81 cells": {"test_system": "C81 cells", "assay": "DAPI DNA staining, C81 cells", "format": "cell-based", "settings": "50 µM Peptide A-8R, 1 hr, with or without 5 mM NAC, Fig. S6", "method": "C81 cells were first treated with or without 5 mM NAC for 2 hrs and then Vehicle or different concentrations of Peptide A-8R, as shown, for 1 hr and stained with DAPI. Phase contrast images are shown. (TIF) Click here for additional data file."}},
  "note": "Entries after “also recorded” stand apart in the source; their conditions may differ. Where no end group is shown, it is not given here.",
  "data": [
    {"substance": "Ac-TFCKAFPFHIIRRRRRRRR [Peptide A-8R]", "values": [
      {"measurement": "rescue by adenovirus-expressed AKT", "setting": "LNCaP cells", "value": "unable to rescue"},
      {"measurement": "effect on sGCα1-sGCβ1 co-IP (heterodimerization)", "setting": "sGCα1-sGCβ1", "value": "had no effect on either sGCα1 co-IP with sGCβ1 or sGCβ1 co-IP with sGCα1; also recorded: does not interfere with sGCα1-sGCβ1 dimerization"},
      {"measurement": "DAPI staining / effect on nuclei and DNA", "setting": "C81 cells", "value": "kills the cells and disrupts their nuclei and DNA such that DAPI staining yields no signal"}
    ]}
  ]
}
